Source: patent US5874078A, “Reagent composition of glutamate dehydrogenase from pseudomonas” (Toyo Boseki Kabushiki Kaisha, priority 1994, dated 1999)
Read-outs that look alike come from different tables or passages of the source. One block for each compound: values may come before it.

Legend:
[1] = test system: glutamate dehydrogenase from Pseudomonas sp. 433-3 (FERM P-14092); assay: Km values of glutamate dehydrogenase; assay type: biochemical
Description: The above reaction mixture solution (2.9 ml) is taken in a cuvette and subjected to a preliminary heating at 30° C. for about five minutes. Then the reaction is initiated by adding 0.1 ml of an enzyme solution thereto, decrease in absorbance of 340 nm in a spectrophotometer controlled at 30° C. is recorded for 3-4 minutes and, out of its linear portion, the decrease in the absorbance per minute is determined. A blank test is carried out according to the same operations as above except that 0.1M Tris-HCl buffer (pH: 8.3) is added instead of the enzyme solution. […]
The above reaction mixture solution (2.9 ml) was taken in a cuvette and subjected to a preliminary heating at 30° C. for about five minutes. Then the reaction was initiated by adding 0.1 ml of an enzyme solution thereto, […] at 30° C. was recorded for 3-4 minutes and, out of its linear portion, the decrease in the absorbance per minute was determined. A blank test was carried out according to the same operations as above except that 0.1M Tris-HCl buffer (pH: 9.0) was added instead of the enzyme solution.

[2] = target: T1, Bovine Liver CLDH (glutamate dehydrogenase derived from bovine liver) (Bos taurus, UniProt P00366); assay: Activation by ADP (reductive amination activity); assay type: biochemical; conditions: 2.5 mM ADP, pH 8.3, 30° C., read-out: activity with 2.5 mM ADP (without ADP = 100%)
T1 construct: Bovine Liver CLDH; from tissue; host or cells: bovine liver
T1 sequence (P00366 58-558): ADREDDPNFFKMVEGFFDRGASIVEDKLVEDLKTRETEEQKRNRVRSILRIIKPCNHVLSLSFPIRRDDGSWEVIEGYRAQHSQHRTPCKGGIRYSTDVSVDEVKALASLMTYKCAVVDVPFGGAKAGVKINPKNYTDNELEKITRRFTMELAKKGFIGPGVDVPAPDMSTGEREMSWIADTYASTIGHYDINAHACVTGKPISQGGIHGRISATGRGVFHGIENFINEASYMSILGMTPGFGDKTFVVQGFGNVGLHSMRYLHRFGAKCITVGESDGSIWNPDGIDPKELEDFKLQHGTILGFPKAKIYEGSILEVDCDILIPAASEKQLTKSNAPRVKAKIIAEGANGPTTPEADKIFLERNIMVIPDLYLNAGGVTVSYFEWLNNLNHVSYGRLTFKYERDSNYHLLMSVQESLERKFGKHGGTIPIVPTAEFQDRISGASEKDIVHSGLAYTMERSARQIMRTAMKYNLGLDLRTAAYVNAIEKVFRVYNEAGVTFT
Description: (§1) A method of measuring an activity of the glutamate dehydrogenase of the present invention by means of a reductive amination will be as follows.
(§2) The above reaction mixture solution (2.9 ml) is taken in a cuvette and subjected to a preliminary heating at 30° C. for about five minutes. Then the reaction is initiated by adding 0.1 ml of an enzyme solution thereto, decrease in absorbance of 340 nm in a spectrophotometer controlled at 30° C. is recorded for 3-4 minutes and, out of its linear portion, the decrease in the absorbance per minute is determined. A blank test is carried out according to the same operations as above except that 0.1M Tris-HCl buffer (pH: 8.3) is added instead of the enzyme solution. The way of expression of an activity of the glutamate dehydrogenase is in such a manner that the amount of the enzyme by which 1 micromole of NADH is oxidized per minute under the above-mentioned conditions is defined as one unit (U).
(§3) ADP was added to the reagent for measuring the activity of glutamate dehydrogenase of the present invention (a reductive amination) to make it 2.5 mM and the resulting activity was compared with that where nothing was added.

[3] = test system: glutamate dehydrogenase from Pseudomonas sp. 433-3 (FERM P-14092); assay: Activation by ADP (reductive amination activity); assay type: biochemical; conditions: pH 8.3, 30° C.
Description: as §1, §2, §3

[4] = target: NAD+-dependent glutamate dehydrogenase (EC 1.4.1.2) from Peptococcus aerogene (Peptoniphilus asaccharolyticus, UniProt P28997); conditions: read-out: Km Value to NH3; Table 3; Can. J. Microbiol. 18, 881 (1972); cited from earlier work
NAD+-dependent glutamate dehydrogenase (EC 1.4.1.2) from Peptococcus aerogene, sequence (P28997 whole entry): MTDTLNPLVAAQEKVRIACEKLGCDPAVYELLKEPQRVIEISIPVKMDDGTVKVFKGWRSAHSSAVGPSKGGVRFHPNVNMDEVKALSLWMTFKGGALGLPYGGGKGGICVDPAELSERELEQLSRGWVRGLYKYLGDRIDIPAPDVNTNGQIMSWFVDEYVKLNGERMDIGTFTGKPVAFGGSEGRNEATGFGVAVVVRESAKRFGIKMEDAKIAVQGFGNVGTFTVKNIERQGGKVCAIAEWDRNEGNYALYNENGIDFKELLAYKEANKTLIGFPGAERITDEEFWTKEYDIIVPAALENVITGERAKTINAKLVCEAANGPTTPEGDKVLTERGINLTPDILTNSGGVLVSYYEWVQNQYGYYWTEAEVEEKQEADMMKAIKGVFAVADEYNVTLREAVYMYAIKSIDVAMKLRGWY

[5] = test system: NAD+-dependent glutamate dehydrogenase (EC 1.4.1.2) from Clostridium sp. SB4; conditions: read-out: Km Value to NH3; Table 3; The Enzymes, 3rd Ed. 11, 293 (1975); cited from earlier work
[6] = test system: NAD+-dependent glutamate dehydrogenase (EC 1.4.1.2) from Synechocystis sp.; conditions: read-out: Km Value to NH3; Table 3; FEBS Lett. 285, 35 (1991); cited from earlier work

Km ([1]; read-out: Km value to NADH): 0.19 mM
Compound: NC(=O)C1=CN([C@@H]2O[C@H](COP(=O)(O)OP(=O)(O)OC[C@H]3O[C@@H](n4cnc5c(N)ncnc54)[C@H](O)[C@@H]3O)[C@@H](O)[C@H]2O)C=CC1 [NADH]

activity at 2500 µM [2]: 145%
activity with 2.5 mM ADP (without ADP = 100%) [3]: 100%
Compound: Nc1ncnc2c1ncn2[C@@H]1O[C@H](COP(=O)(O)OP(=O)(O)O)[C@@H](O)[C@H]1O [ADP]

Km ([1]; read-out: Km value to NAD^+): 0.1 mM
Compound: NC(=O)c1ccc[n+]([C@@H]2O[C@H](COP(=O)(O)OP(=O)([O-])OC[C@H]3O[C@@H](n4cnc5c(N)ncnc54)[C@H](O)[C@@H]3O)[C@@H](O)[C@H]2O)c1 [NAD^+]

The next lines start with the compound.

Compound: N[C@@H](CCC(=O)O)C(=O)O [L-glutamic acid]
Km ([1]; read-out: Km value to L-glutamic acid): 17 mM

Compound: N [ammonia]
Km ([1]; Table 3, This Invention, read-out: Km Value to NH3): 8.5 mM
Km ([1]; read-out: Km value to ammonia): 8.5 mM
Km [4]: 18.4 mM
Km [5]: 0.32 mM
Km [6]: 4.5 mM
